According to US4226883A, “Carbamate derivatives and method for manufacture thereof” (priority 1974, dated 1980):
In brackets after ≈: the same amount, converted by molar mass. Where two headings read alike, the source gives them in different places.

Columns and labels:
[1] = tested on: green rice leafhoppers of the strain RN; assay: Test Example 3: dust spray test (20 mesh metal gauze cylinder); format: in vivo, Nephotettix cincticeps; settings: for Effect of individual compound (RN), death ratio (%) (Table 9): dust, compound alone, RN strain; for mortality at 250 mg/cylinder / mortality at 100 mg/cylinder: 24 hr
Protocol: The insecticides in the form of dust were tested for insecticidal activity.
(§1) The test for insecticidal activity was performed by the following procedure. […] The dust of a test compound (pulverized by means of a shaking pulverizer made by Taira Kosakusho, Ltd.) was applied onto the tube contents at a prescribed rate by spraying from outside the metal gauze by means of a bell-jar duster. The dust of the test compound was prepared uniformly mixing 2 parts of the dust of the individual compound or 1 part each of the dusts of the mixture components (total 2 parts) and 98 parts of a carrier obtained by mixing talc and clay in equal volumes.

[2] = tested on: green rice leafhoppers of the strain RN; assay: Test Example 4: dust test with 35 mesh metal gauze; format: in vivo, Nephotettix cincticeps
Protocol: as §1

[3] = tested on: resistant green rice leafhoppers (R); settings: ratio of the resistant strain to the susceptible strain (LD50); 1440 min
Protocol: (1) A 20-mg portion of a given test compound was weighed out and dissolved in 10 ml of acetone. The resultant solution was diluted at proper times with acetone.
(2) With a micro-syringe, the acetone solution of the test compound was topically applied to the thoracic region of female green rice leafhoppers at a fixed dose of 0.2 μl per head.
(3) The female green rice leafhoppers thus treated were placed in a plastic cup prepared in advance (measuring 7 cm in diameter and 3.5 cm in depth and containing rice seeds) and kept at a constant temperature of 26±1° C. After 24 hours' standing, the dead insects were counted.
In the case of a mixed insecticide, the LD50 was shown as a total dosage.

[4] = tested on: Culex pipiens pallens immunized against organophosphoric preparations, last larval state; assay: Test Example 9 (W.H.O. method): mosquito larvae test; format: in vivo; settings: Culex pipiens, 24 h, read-out: Effect of compound used singly, LD50 (Table 16)
Protocol: (1) An ethyl alcohol solution of each test compound was diluted with water to varying concentrations in the range of from 0.01 to 1.0 ppm.
(2) A 200-ml portion of each solution of a different concentration was placed in a 300-ml beaker. Then 30 test insects were plunged into the solution and then removed.
(3) The insects removed from the solution were kept in a greenhouse at a constant temperature of 25±1° C. for 24 hours. At the end of 24 hours of standing, a count was taken of the number of insects that had died by that time.
The test described above was repeated twice or thrice.

[5] = target: cholinesterase (ChE), susceptible strain; assay: Inhibition of cholinesterase (acetylthiocholine method), susceptible strain enzyme; format: biochemical, green rice leafhopper, Nephotettix cincticeps; settings: 50% inhibition concentration, 30° C. 30 min with inhibitor, read-out: Inhibition of Cholinesterase I50 (M) S
Protocol: The activity of ChE was performed by the acethyethiocholine method [Ellman (1961), Biochemical Pharmacology 7: 88-95].
[…]. After centrifuged (30,000 g, 10 min.), the supernatant was used as the source of ChE.
(§2) (2) Inhibition: 1.0 ml of enzyme solution was incubated with 0.1 ml of inhibitor which diluted with acetone at 30° C. for 30 min. ((2) solution).
(3) Determination of ChE activity: 1.0 ml of acetylthiochline (3.5/2×10^-2 M), 1.0 ml of DTNB (5,5'-dithiobis-2-nitrobenzoic acid, 2.5×10^-4 M) and 4.0 ml of phosphate buffer (1/15 M, pH 7.4) were added to the (2) solution and incubated at 30° C. for 10 min. After incubation, […] of eserine (2×10^-3 M) was added in order to stop the enzyme reaction and the optical density of the yellow solution was measured at 412 mμ on the spectrophotometer.

[6] = tested on: cholinesterase (ChE), resistant strain; format: biochemical, green rice leafhopper, Nephotettix cincticeps; settings: for Inhibition of Cholinesterase R/S (resistant ratio): ratio of the resistant strain to the susceptible strain (I50), 30 min; for IC50: resistant strain, 50% inhibition concentration, 30° C. 30 min with inhibitor, read-out: Inhibition of Cholinesterase I50 (M) R
Protocol: After centrifuged (30,000 g, 10 min.), the supernatant was used as the source of ChE.
as §2
(3) Determination of ChE activity: 1.0 ml of acetylthiochline (3.5/2×10^-2 M), 1.0 ml of DTNB (5,5'-dithiobis-2-nitrobenzoic acid, 2.5×10^-4 M) and 4.0 ml of phosphate buffer (1/15 M, pH 7.4) were added to the (2) solution and incubated at 30° C. for 10 min.

in vivo = settings: mouse, po
Protocol: Different amounts of the suspension were injected into the stomaches of test mice with a metal tube. For the test, male mice of the species ddY were used.

[7] = 2% dust, 250 mg, read-out: Mortality (%) after 24 hr., 250 mg Spray (Table 7)
[8] = 2% dust, 100 mg, read-out: Mortality (%) after 24 hr., 100 mg Spray (Table 7)

CNC(=O)Oc1cccc2ccccc12 [Compound 49, 1-naphthyl-N-methylcarbamate]
Effect of individual compound (RN), death ratio (%) (Table 9) [1]: 0% | mortality at 100 mg ([2]; 1 h, read-out: Death ratio (%) 1 hr., Dusting amount 100 mg): 0% | mortality at 250 mg ([2]; 1 h, read-out: Death ratio (%) 1 hr., Dusting amount 250 mg): 0% | mortality at 500 mg ([2]; 1 h, read-out: Death ratio (%) 1 hr., Dusting amount 500 mg): 0% | mortality at 100 mg ([2]; 2 h, read-out: Death ratio (%) 2 hrs., Dusting amount 100 mg): 0% | mortality at 250 mg ([2]; 2 h, read-out: Death ratio (%) 2 hrs., Dusting amount 250 mg): 0% | mortality at 500 mg ([2]; 2 h, read-out: Death ratio (%) 2 hrs., Dusting amount 500 mg): 0% | mortality at 100 mg ([2]; 4 h, read-out: Death ratio (%) 4 hrs., Dusting amount 100 mg): 0% | mortality at 250 mg ([2]; 4 h, read-out: Death ratio (%) 4 hrs., Dusting amount 250 mg): 0% | mortality at 500 mg ([2]; 4 h, read-out: Death ratio (%) 4 hrs., Dusting amount 500 mg): 0% | mortality at 100 mg ([2]; 16 h, read-out: Death ratio (%) 16 hrs., Dusting amount 100 mg): 0% | mortality at 250 mg ([2]; 16 h, read-out: Death ratio (%) 16 hrs., Dusting amount 250 mg): 0% | mortality at 500 mg ([2]; 16 h, read-out: Death ratio (%) 16 hrs., Dusting amount 500 mg): 0% | mortality at 100 mg ([2]; 24 h, read-out: Death ratio (%) 24 hrs., Dusting amount 100 mg): 0% | mortality at 250 mg ([2]; 24 h, read-out: Death ratio (%) 24 hrs., Dusting amount 250 mg): 0% | mortality at 500 mg ([2]; 24 h, read-out: Death ratio (%) 24 hrs., Dusting amount 500 mg): 0%

CCC(C)c1ccccc1OC(=O)NC (stereo not drawn) [Compound 6, 2-sec-butylphenyl-N-methylcarbamate]
Insecticidal Activity R/S (resistant ratio) [3]: 28.4 | mortality at 250 mg/cylinder [1, 7]: 10% | Effect of individual compound (RN), death ratio (%) (Table 9) [1]: 0% | mortality at 100 mg ([2]; Table 10, 35 mesh, 100 mg, 1 hr, read-out: Death ratio (%) 1 hr., Dusting amount 100 mg): 0% | mortality at 100 mg ([2]; Table 10, 35 mesh, 100 mg, 2 hrs, read-out: Death ratio (%) 2 hrs., Dusting amount 100 mg): 0% | mortality at 100 mg ([2]; Table 10, 35 mesh, 100 mg, 4 hrs, read-out: Death ratio (%) 4 hrs., Dusting amount 100 mg): 0% | mortality at 100 mg ([2]; Table 10, 35 mesh, 100 mg, 16 hrs, read-out: Death ratio (%) 16 hrs., Dusting amount 100 mg): 0% | mortality at 100 mg ([2]; Table 10, 35 mesh, 100 mg, 24 hrs, read-out: Death ratio (%) 24 hrs., Dusting amount 100 mg): 0% | mortality at 250 mg ([2]; Table 10, 35 mesh, 250 mg, 1 hr, read-out: Death ratio (%) 1 hr., Dusting amount 250 mg): 0% | mortality at 250 mg ([2]; Table 10, 35 mesh, 250 mg, 2 hrs, read-out: Death ratio (%) 2 hrs., Dusting amount 250 mg): 0% | mortality at 250 mg ([2]; Table 10, 35 mesh, 250 mg, 4 hrs, read-out: Death ratio (%) 4 hrs., Dusting amount 250 mg): 0% | mortality at 250 mg ([2]; Table 10, 35 mesh, 250 mg, 16 hrs, read-out: Death ratio (%) 16 hrs., Dusting amount 250 mg): 0% | mortality at 250 mg ([2]; Table 10, 35 mesh, 250 mg, 24 hrs, read-out: Death ratio (%) 24 hrs., Dusting amount 250 mg): 0% | mortality at 500 mg ([2]; Table 10, 35 mesh, 500 mg, 1 hr, read-out: Death ratio (%) 1 hr., Dusting amount 500 mg): 0% | mortality at 500 mg ([2]; Table 10, 35 mesh, 500 mg, 2 hrs, read-out: Death ratio (%) 2 hrs., Dusting amount 500 mg): 0% | mortality at 500 mg ([2]; Table 10, 35 mesh, 500 mg, 4 hrs, read-out: Death ratio (%) 4 hrs., Dusting amount 500 mg): 0% | mortality at 500 mg ([2]; Table 10, 35 mesh, 500 mg, 16 hrs, read-out: Death ratio (%) 16 hrs., Dusting amount 500 mg): 0% | mortality at 500 mg ([2]; Table 10, 35 mesh, 500 mg, 24 hrs, read-out: Death ratio (%) 24 hrs., Dusting amount 500 mg): 0%

CCCNC(=O)Oc1ccc(C)c(C)c1 [Compound 37, 3,4-dimethylphenyl-N-n-propylcarbamate]
Insecticidal Activity R/S (resistant ratio) [3]: 0.8 | mortality at 100 mg/cylinder [1, 8]: 60% | mortality at 250 mg/cylinder [1, 7]: 90% | LC50 [4]: > 1 µg/mL

CCNC(=O)Oc1cc(C)cc(C)c1 [Compound 41, 3.5-dimethylphenyl-N-ethylcarbamate]
IC50 [5]: 0.00011 M | Inhibition of Cholinesterase R/S (resistant ratio) [6]: 0.7 | IC50 [6]: 7.9e-05 M | Insecticidal Activity R/S (resistant ratio) [3]: 2.0 | mortality at 100 mg/cylinder [1, 8]: 50% | mortality at 250 mg/cylinder [1, 7]: 70%

CCNC(=O)Oc1cccc(CC)c1 [Compound 30]
IC50 [5]: 0.0002 M | Inhibition of Cholinesterase R/S (resistant ratio) [6]: 0.8 | IC50 [6]: 0.00016 M | Insecticidal Activity R/S (resistant ratio) [3]: 1.7

CCNC(=O)Oc1ccccc1C(C)C [Compound 2, 2-isopropylpheny-N-ethylcarbamate]
IC50 [5]: 3.2e-05 M | Inhibition of Cholinesterase R/S (resistant ratio) [6]: 1.6 | IC50 [6]: 5.2e-05 M | Insecticidal Activity R/S (resistant ratio) [3]: 2.1

CCCCNC(=O)Oc1cccc(C(C)CC)c1 (stereo not drawn) [Compound 18]
IC50 [5]: 5e-05 M | Inhibition of Cholinesterase R/S (resistant ratio) [6]: 0.09 | IC50 [6]: 4.3e-06 M | Insecticidal Activity R/S (resistant ratio) [3]: 0.9

CCCNC(=O)Oc1ccccc1C(C)CC (stereo not drawn) [Compound 8, 2-sec-butylphenyl-N-n-propylcarbamate]
Insecticidal Activity R/S (resistant ratio) [3]: 1.2 | mortality at 250 mg/cylinder [1, 7]: 80% | LC50 [4]: > 1 µg/mL

CCc1cccc(OC(=O)NC)c1 [Compound 29, reference compound]
IC50 [5]: 2.9e-06 M | Inhibition of Cholinesterase R/S (resistant ratio) [6]: 41.4 | IC50 [6]: 0.00012 M | Insecticidal Activity R/S (resistant ratio) [3]: 14.9

CCCNC(=O)Oc1cc(C)cc(C)c1 [Compound 42, 3,5-dimethylphenyl-N-n-propylcarbamate]
Insecticidal Activity R/S (resistant ratio) [3]: 0.7 | mortality at 100 mg/cylinder [1, 8]: 70% | mortality at 250 mg/cylinder [1, 7]: 95% | mortality at 100 mg/cylinder ([1]; Table 8, dust 100 mg, read-out: Mortality (%) after 24 hr., Spray Volume 100 mg): 70% | mortality at 250 mg/cylinder ([1]; Table 8, dust 250 mg, read-out: Mortality (%) after 24 hr., Spray Volume 250 mg): 95% | LC50 [4]: > 1 µg/mL

CCOC(=O)CC(SP(=S)(OC)OC)C(=O)OCC (stereo not drawn) [Malathion, S-[1,2-bis(ethoxycarbonyl)ethyl]dimethyl phosphorothiolothionate, reference compound]
LC50 [4]: 0.31 µg/mL (≈ 0.938 µM)

CCCNC(=O)Oc1ccccc1OC(C)C [Compound 83, 2-isopropoxyphenyl-N-n-propylcarbamate]
death ratio (%), mixture with Compound No. 1 ([1]; Table 9, dust mixed with 1, RN): 80.0% | death ratio (%), mixture with Compound No. 6* ([1]; Table 9, dust mixed with 6*, RN): 95.0% | death ratio (%), mixture with Compound No. 24* ([1]; Table 9, dust mixed with 24*, RN): 82.5% | death ratio (%), mixture with Compound No. 35* ([1]; Table 9, dust mixed with 35*, RN): 100% | death ratio (%), mixture with Compound No. 40* ([1]; Table 9, dust mixed with 40*, RN): 82.5% | death ratio (%), mixture with Compound No. 49* ([1]; Table 9, dust mixed with 49*, RN): 50.0% | death ratio (%), mixture with Compound No. 81* ([1]; Table 9, dust mixed with 81*, RN): 100% | death ratio (%), mixture with Compound No. 118* ([1]; Table 9, dust mixed with 118*, RN): 95.0% | death ratio (%), mixture with Carbofuran ([1]; Table 9, dust mixed with Carbofuran, RN): 100% | death ratio (%), mixture with Methomyl ([1]; Table 9, dust mixed with Methomyl, RN): 100% | Effect of individual compound (RN), death ratio (%) (Table 9) [1]: 20.0% | LC50 [4]: > 1 µg/mL

CCNC(=O)Oc1cccc(C(C)C)c1 [Compound 12]
IC50 [5]: 3.7e-05 M | Inhibition of Cholinesterase R/S (resistant ratio) [6]: 0.5 | IC50 [6]: 1.7e-05 M | Insecticidal Activity R/S (resistant ratio) [3]: 3.7

CCCC(C)c1cccc(OC(=O)NCC)c1 (stereo not drawn) [Compound 20]
IC50 [5]: 3.4e-06 M | Inhibition of Cholinesterase R/S (resistant ratio) [6]: 1.2 | IC50 [6]: 4.1e-06 M | Insecticidal Activity R/S (resistant ratio) [3]: 1.5

CCCNC(=O)Oc1cc(C)c(N(C)C)c(C)c1 [Compound 120, 3,5-dimethyl-4-dimethylaminophenyl-N-n-propylcarbamate]
LD50 at 168 h (in vivo): 30 to 300 mg/kg | mortality (in vivo; 30 mg/kg): 0% | mortality (in vivo; 300 mg/kg): 100%
